Drawing on ChEMBL document CHEMBL4024743, “BACE-1 Inhibitors: From Recent Single-Target Molecules to Multitarget Compounds for Alzheimer's Disease” (J Med Chem, 2018), this text covers IC50, concentration and bioavailability for six compounds.

Series [1] addresses T1, Beta-secretase 1 (Homo sapiens, UniProt P56817). The series is described as follows: Inhibition of BACE-1 (unknown origin).
The target in series [2] is Glycogen synthase kinase-3 beta (Homo sapiens, UniProt P49841). The series is described as follows: Inhibition of recombinant human GSK3beta using prephosphorylated polypeptide as substrate preincubated for 30 mins followed by addition of kinase-glo stop solution measured after 10 mins by Kinase-Glo luminescence assay. (In general: Kinase-Glo reads ATP consumption through a luciferase reaction.)
Sequence of Glycogen synthase kinase-3 beta (P49841 whole entry): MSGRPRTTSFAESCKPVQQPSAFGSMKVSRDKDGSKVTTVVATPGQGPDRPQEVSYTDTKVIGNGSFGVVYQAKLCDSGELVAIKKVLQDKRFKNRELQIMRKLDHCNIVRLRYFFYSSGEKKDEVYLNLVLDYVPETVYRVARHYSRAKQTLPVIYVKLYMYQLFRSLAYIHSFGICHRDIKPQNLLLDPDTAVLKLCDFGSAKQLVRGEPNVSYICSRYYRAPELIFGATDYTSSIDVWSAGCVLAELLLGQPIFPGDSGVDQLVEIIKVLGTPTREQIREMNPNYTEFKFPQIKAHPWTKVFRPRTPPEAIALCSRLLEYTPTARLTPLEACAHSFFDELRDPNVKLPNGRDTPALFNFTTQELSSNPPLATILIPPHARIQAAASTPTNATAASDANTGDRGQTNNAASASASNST

The nature of series [3]: Drug uptake in CD16 mouse brain at 3 mg/kg, po after 30 mins by LC-MS/MS analysis. It is filed as ADME, organism-based. Particulars: read-out: Drug uptake.
Series [4] is described as follows: Oral bioavailability in CD16 mouse at 10 mg/kg. It is filed as ADME, organism-based. To be noted: in vivo.
Series [5] addresses T1, Beta-secretase 1.
Description: Inhibition of BACE-1 (unknown origin) using APP derived polypeptide harboring Lys-Met/Asn-Leu mutation as substrate by FRET assay
Series [6] deals with T1, Beta-secretase 1. Put plainly: Inhibition of human BACE-1 preincubated for 1 hr followed by substrate addition measured after 60 mins by FRET assay.

pIC50: −log10 of the molar value.

T1 sequence (P56817 whole entry): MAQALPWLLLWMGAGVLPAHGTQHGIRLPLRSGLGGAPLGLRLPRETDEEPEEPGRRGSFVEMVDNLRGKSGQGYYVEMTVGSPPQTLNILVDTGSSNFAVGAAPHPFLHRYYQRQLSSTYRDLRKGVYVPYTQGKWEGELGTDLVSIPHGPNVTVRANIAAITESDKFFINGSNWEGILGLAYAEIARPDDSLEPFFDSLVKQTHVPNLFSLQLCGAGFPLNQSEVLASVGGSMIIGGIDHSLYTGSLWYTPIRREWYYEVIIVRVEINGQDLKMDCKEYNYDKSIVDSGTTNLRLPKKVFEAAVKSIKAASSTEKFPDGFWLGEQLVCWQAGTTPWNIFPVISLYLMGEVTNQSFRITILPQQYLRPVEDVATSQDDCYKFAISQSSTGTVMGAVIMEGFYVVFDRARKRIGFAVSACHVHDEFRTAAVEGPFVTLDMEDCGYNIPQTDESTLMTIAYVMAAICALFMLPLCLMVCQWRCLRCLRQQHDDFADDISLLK

Compound `O=C1NC(=O)C2C=CNC2N1` (stereo not drawn) gave a pIC50 at Beta-secretase 1 [1] of 4.52.

Regarding `NC1=NC(c2ccc(F)cc2)NC(=O)N1` (stereo not drawn), in series [2], the pIC50 was 4.83. The concentration at 0.5 h in series [3] was found to be 620 nM. Also, the bioavailability in series [4] amounted to 66%.

`CC#Cc1cncc(-c2ccc3c(c2)[C@]2(CO3)N=C(N)C[C@@H]2C(F)(F)F)c1`: the pIC50 at Beta-secretase 1 [5] is 6.94.

In the case of `O=C1CSC2(CCN(CCCN3c4ccccc4Sc4ccc(Cl)cc43)CC2)N1` [SPICLOMAZINE], at Beta-secretase 1 [6], the pIC50 is 5.18.

In the case of `CC1Cc2ccc(OC(=O)c3ccc(NC(=N)N)cc3)cc2OC1=O` (stereo not drawn), on Beta-secretase 1 [6], the pIC50 was 5.82.

At Beta-secretase 1 [6], `OC1=C2Nc3ccccc3N=C2OC1c1c[nH]c2ccc(COc3ccccc3)cc12` (stereo not drawn) showed a pIC50 of 5.74.

As usually defined, the pIC50 is the negative decadic logarithm of the IC50, by convention in mol/L. In general, bioavailability refers to dose-corrected exposure relative to a reference, in per cent. A lower bioavailability goes with poor availability.
